In article PMC10976160, “Comparative Pharmacokinetics Research of 13 Bioactive Components of Jieyu Pills in Control and Attention Deficit Hyperactivity Disorder Model Rats Based on UPLC-Orbitrap Fusion MS” (Molecules, 2024):
Like-named read-outs stand apart in the source and are kept apart here.

Assays:
[1] = Pharmacokinetics in control rats after gavage of JYPs; format: in vivo, Sprague Dawley (SD) rats; settings: for half-life / Tmax / AUC(0-inf) / AUC(0-t) / Cmax / MRT last / MRT inf: male, rat, plasma; for Tmax: po; for MRT last: read-out: MRT(0-t); for MRT inf: read-out: MRT(0-∞)
From the text: According to the established method for the analysis of serum biological samples, the pharmacokinetics of various components of rat serum were investigated after the administration of different dosages of JYPs to control rats.
(§1) For the control experiment, healthy male Sprague Dawley (SD) rats of SPF grade ([…] ± 20 g) were purchased from Sipeifu (Beijing) Biotechnology Co., Ltd. (Beijing, China), Animal Quality Certificate No. 110324220102348616. For the ADHD model rats, healthy male SHR rats of SPF grade, weighing 220 ± 20 g, were purchased from SBF (Beijing) Biotechnology Co., Ltd. (Beijing, China), License No. SCXK (Yu) 2019-0010. The animals were accommodated in the Animal Center of Henan University of Traditional Chinese Medicine, which successfully underwent an ethical audit with ethics number DWLL202208003. The animals were bred under controlled conditions at a temperature of 24 °C and a relative humidity of 50 ± 2%. Before the experiment, the animals abstained from eating for 12 h and had unrestricted access to water. The feeding and experimental research conducted on the experimental animals adhered to the laws outlined in the Management of Experimental Animals in Henan Province.
(§2) JYPs were ground into a fine powder and sieved through 60-mesh sieves; then, 20 g of fine JYP powder was taken, having been weighed precisely. A precise volume of 50 mL of pure water was added and mixed well to prepare a 0.4 g/mL suspension solution of JYPs, which was then stored in the refrigerator at 4 °C.
(§3) This study involved 24 healthy male SD rats with a body mass of 220 ± 20 g and 24 healthy male ADHD rats with a body mass of 220 ± 20 g. Subjects abstained from food for a duration of 12 h before the experiment and consumed water without restriction. Both kinds of rats were randomly divided into four groups: a blank group, given an equal dose of water intragastrically, and 3 different administration groups: rats given the equivalent human dose of JYPs by gavage in doses of 1.080 g/kg/d, 2.160 g/kg/d, and 4.320 g/kg/d. Tail vein blood was collected at 0.083, 0.25, 0.5, 0.75, 1, 1.5, 2, 3, 4, 6, 8, 12, 18, and 24 h after dosing. About 0.5 mL of blood was collected in sodium heparin centrifugal tubes, then centrifuged at 4 °C for 10 min at a speed of 3500r/min. We took the upper layer and placed it at −80 °C for preservation.
(§4) We took 200 μL of plasma, added 600 μL of methanol solution and 50 μL of internal standard (100 ng/mL), and subjected it to shaking for 5 min, followed by centrifugation at 4 °C at 12,000 r/min for 10 min. The supernatant was collected and allowed to dry, then reconstituted with 50 μL of 50% methanol and centrifuged at 4 °C at 14,000 r/min for a further 10 min. The supernatant after this process was taken as the test solution. A volume of 5 μL was used for UPLC-MS analysis. The drug concentration in plasma was calculated with the aid of the internal standard.
Chromatographic conditions: Hypersil GOLD (100 × 2.1 mm, 1.9 μm) column; column temperature 35 °C; mobile phase acetonitrile (A)/0.1% formic acid aqueous solution (B); gradient elution; gradient elution program: 0–0.5 min (95% B–95% B), 0.5–8 min (95% B–50% B), 8–14 min (50% B–20% B), 14–20 min (20% B–5% B), 20–22 min (5% B–5% B), 22–25 min (95% B–95% B); flow rate 0.2 mL/min; injection volume 5 μL.

[2] = Pharmacokinetics in ADHD model rats after gavage of JYPs; format: in vivo, SHR rats (ADHD model); settings: for peak time / half-life: ADHD model rats, oral JYPs; for half-life: male, SHR, plasma; for removed within 12 h: ADHD rats (as printed, in the control-group section)
Method: Based on the established analytical method for plasma samples, a pharmacokinetic study was conducted on 13 constituents in the plasma of ADHD model rats after gavage of JYPs (Figure 3). The linearity of ln(AUC0-t)–ln(dose) and ln(Cmax)–ln(dose) was analyzed in the same way.
as §1, §2, §3, §4
Chromatographic conditions: Hypersil GOLD (100 × 2.1 mm, 1.9 μm) column; column temperature 35 °C; mobile phase acetonitrile (A)/0.1% formic acid aqueous solution (B); gradient elution; gradient elution program: 0–0.5 min (95% B–95% B), 0.5–8 min (95% B–50% B), 8–14 min (50% B–20% B), 14–20 min (20% B–5% B), 20–22 min (5% B–5% B), 22–25 min (95% B–95% B); flow rate 0.2 mL/min; injection volume 5 μL. The ion source was electrospray ionization (ESI), with positive and negative ion mode spray voltages of 3.50 and 3.0 kV, an ion transfer tube temperature of 300 °C, nitrogen as the carrier gas, a sheath gas pressure of 35 arb, an auxiliary gas pressure of 8 arb, and an auxiliary heater temperature of 275 °C.

[3] = Sprague Dawley, oral JYPs, range over compounds and doses, read-out: half-life (t1/2)
[4] = Sprague Dawley, oral JYPs, read-out: peak time (Tmax)
[5] = Sprague-Dawley, 1.08 g/kg/day, oral JYPs low dose 1.080 g/kg/d (1st of 3 values)
[6] = Sprague-Dawley, 2.16 g/kg/day, oral JYPs medium dose 2.160 g/kg/d (2nd of 3 values)
[7] = Sprague-Dawley, 4.32 g/kg/day, oral JYPs high dose 4.320 g/kg/d (3rd of 3 values)
[8] = oral JYPs high dose 4.320 g/kg/d (3rd of 3 values)
[9] = oral JYPs low dose 1.080 g/kg/d (1st of 3 values)
[10] = oral JYPs medium dose 2.160 g/kg/d (2nd of 3 values)

For `C=C(C)[C@@H]1CC=C2C(=CC[C@]3(C)[C@@H]([C@@H](CCC=C(C)C)C(=O)O)[C@H](O)C[C@@]23C)[C@@]1(C)CCC(=O)O` [Poricoic acid B], the half-life [1, 3] was 7.61 to 12.2 h, the Tmax [1, 4] was < 4 h and the peak time [2] was “less than 4 h”. The half-life ([2]; rat) was < 10.3 h and the “t1/2, pathological condition compared with control rats” value ([2]; rat, in vivo) was “shorter”.

With `O=C1C[C@@H](c2ccc(O)cc2)Oc2cc(O)ccc21` [Liquiritigenin] the half-life [1, 3] was 9.53 to 16.8 h, the Tmax [1, 4] was < 1 h and the peak time [2] was “less than 1 h”. The “AUC(0-t), ADHD rats compared with control rats” value ([2]; all dosages) was “significantly lower”.

For `C[C@@]12C[C@@]3(O)O[C@@H](O1)[C@]1(COC(=O)c4ccccc4)[C@H]3C[C@@]12O[C@@H]1O[C@H](CO)[C@@H](O)[C@H](O)[C@H]1O` [Paeoniflorin], the Tmax [1, 4] was < 1 h, the peak time [2] was “less than 1 h” and the “removed within 12 h” value [2] was “approximately 80%”.

In the case of `COc1cc(/C=C/C(=O)O)ccc1O` [Ferulic acid], the half-life [1, 3] is reported as 9.53 to 16.8 h and the Tmax [1, 4] is reported as < 1 h.

In the case of `CCCC=C1OC(=O)C2=C1CCC1C3C=C4C(=O)OC(=CCCC)C4(CC3)C21` (stereo not shown) [Levistilide A], the half-life [1, 3] is reported as 14.4 to 24 h, the Tmax [1, 4] is reported as < 2 h and the AUC(0-inf) [1, 5] is reported as 25.2 ± 7.16 ng·h/mL. The AUC(0-t) [1, 5] was 12.9 ± 4.96 ng·h/mL, the Cmax [1, 5] was 1.79 ± 0.66 ng/mL and the MRT last [1, 5] was 9.51 ± 1.01 h. The MRT inf [1, 5] was 22.9 ± 7.04 h, the half-life ([1]; Sprague-Dawley, 1.08 g/kg/day, oral JYPs low dose 1.080 g/kg/d (1st of 3 values), read-out: t1/2 (converted)) was 14.4 ± 4.36 h and the AUC(0-inf) [1, 6] was 34.2 ± 5.08 ng·h/mL. For the same compound, the AUC(0-t) [1, 6] was 21.5 ± 2.97 ng·h/mL, the Cmax [1, 6] was 2.86 ± 0.52 ng/mL and the MRT last [1, 6] was 9.23 ± 0.46 h. The MRT inf [1, 6] was 24.1 ± 8.96 h, the half-life ([1]; Sprague-Dawley, 2.16 g/kg/day, oral JYPs medium dose 2.160 g/kg/d (2nd of 3 values), read-out: t1/2 (converted)) was 16.4 ± 7.3 h and the AUC(0-inf) [1, 7] was 59.8 ± 23.1 ng·h/mL. For the same compound, the AUC(0-t) [1, 7] was 36.7 ± 11.3 ng·h/mL, the Cmax [1, 7] was 4.6 ± 2.01 ng/mL and the MRT last [1, 7] was 8.92 ± 1.16 h. For the same compound, the MRT inf [1, 7] was 31.2 ± 38.1 h, the half-life ([1]; Sprague-Dawley, 4.32 g/kg/day, oral JYPs high dose 4.320 g/kg/d (3rd of 3 values), read-out: t1/2 (converted)) was 22.1 ± 26.9 h and the Tmax ([1]; Sprague-Dawley, 1.08 g/kg/day, oral JYPs low dose 1.080 g/kg/d (1st of 3 values), read-out: Tmax) was 1.17 ± 0.41 h. The Tmax ([1]; Sprague-Dawley, 2.16 g/kg/day, oral JYPs medium dose 2.160 g/kg/d (2nd of 3 values), read-out: Tmax) was 0.92 ± 0.13 h, the Tmax ([1]; Sprague-Dawley, 4.32 g/kg/day, oral JYPs high dose 4.320 g/kg/d (3rd of 3 values), read-out: Tmax) was 1.67 ± 0.52 h and the “AUMC(0-t)” value [1, 8] was 323.93± 97.01 ng/mL*(h)². For the same compound, the “AUMC(0-ꝏ)” value [1, 8] was 2493.49± 4004.18 ng/mL*(h)², the Clearances [1, 8] was 1455.57 ± 663.81 mL/h and the Vss [1, 8] was 33463.62 ± 24837.03 mL. The “AUMC(0-t)” value [1, 9] was 150.01± 45.26 ng/mL*(h)², the “AUMC(0-ꝏ)” value [1, 9] was 584.44± 254.39 ng/mL*(h)² and the Clearances [1, 9] was 794.02 ± 199.77 mL/h. The Vss [1, 9] was 17878.07 ± 6212.70 mL, the “AUMC(0-t)” value [1, 10] was 197.79±26.58 ng/mL*(h)² and the “AUMC(0-ꝏ)” value [1, 10] was 849.62± 407.65 ng/mL*(h)². The Clearances [1, 10] was 1123.37 ± 161.30 mL/h and the Vss [1, 10] was 26341.48 ± 7666.95 mL.

With `CC12CC(O)C3CC1(OC1OC(CO)C(O)C(O)C1O)C3(COC(=O)c1ccccc1)C(=O)O2` (stereo not shown) [Albiflorin] the peak time [2] was “less than 1 h”, the “removed within 12 h” value [2] was “approximately 80%” and the “Tmax, model rats compared with control rats” value ([2]; high-dose group) was “significantly shorter”. For the same compound, the “Cmax, model rats compared with control rats” value ([2]; middle- and high-dose administration groups) was “significantly greater”.

In the case of `O=C1C[C@@H](c2ccc(O[C@@H]3O[C@H](CO)[C@@H](O)[C@H](O)[C@H]3O)cc2)Oc2cc(O)ccc21` [Liquiritin], the half-life [1, 3] is reported as 9.53 to 16.8 h, the Tmax [1, 4] is reported as < 1 h and the peak time [2] is reported as “less than 1 h”.

In the case of `C=C(CC[C@@H](C(=O)O)[C@H]1[C@H](O)C[C@@]2(C)C3=CC[C@@H](C(=C)C)[C@](C)(CCC(=O)O)C3=CC[C@]12C)C(C)C` [Poricoic acid A], the half-life [1, 3] is reported as 7.61 to 12.2 h, the Tmax [1, 4] is reported as < 4 h and the peak time [2] is reported as “less than 4 h”. For the same compound, the half-life ([2]; rat) was < 10.3 h and the “Cmax, ADHD rats compared with control rats” value ([2]; rat, in vivo) was “significantly higher”.
